Key:
A. albopictus larvae = test: Larvicidal assay on second-instar larvae; type: in vivo, Aedes albopictus; conditions: for larvicidal activity (in words): 1 µM, 3 days; for mortality at 1 µM / LC50: Aedes albopictus, 72 h; for mortality at 1 µM: read-out: Mortality (%) at 1 µM Obsd.; for LC50: read-out: pLC50 (M) (converted); for Logit A Obsd.: logit-transformed mortality at 1 µM based on Eq. 1
Aedes albopictus EcRs = target: T1, Aedes albopictus EcRs (Aedes albopictus, UniProt Q9U3Y4); type: binding; conditions: for change in binding potency compared to the parent compound: 21, 22, 23 vs. 1, 28, 31 vs. 22; for pIC50 (M): Series II, [3H]PonA binding, NIAS-AeAl-2 cells, 30 min, 25°C, mean±SD
T1 sequence (Q9U3Y4 1-680): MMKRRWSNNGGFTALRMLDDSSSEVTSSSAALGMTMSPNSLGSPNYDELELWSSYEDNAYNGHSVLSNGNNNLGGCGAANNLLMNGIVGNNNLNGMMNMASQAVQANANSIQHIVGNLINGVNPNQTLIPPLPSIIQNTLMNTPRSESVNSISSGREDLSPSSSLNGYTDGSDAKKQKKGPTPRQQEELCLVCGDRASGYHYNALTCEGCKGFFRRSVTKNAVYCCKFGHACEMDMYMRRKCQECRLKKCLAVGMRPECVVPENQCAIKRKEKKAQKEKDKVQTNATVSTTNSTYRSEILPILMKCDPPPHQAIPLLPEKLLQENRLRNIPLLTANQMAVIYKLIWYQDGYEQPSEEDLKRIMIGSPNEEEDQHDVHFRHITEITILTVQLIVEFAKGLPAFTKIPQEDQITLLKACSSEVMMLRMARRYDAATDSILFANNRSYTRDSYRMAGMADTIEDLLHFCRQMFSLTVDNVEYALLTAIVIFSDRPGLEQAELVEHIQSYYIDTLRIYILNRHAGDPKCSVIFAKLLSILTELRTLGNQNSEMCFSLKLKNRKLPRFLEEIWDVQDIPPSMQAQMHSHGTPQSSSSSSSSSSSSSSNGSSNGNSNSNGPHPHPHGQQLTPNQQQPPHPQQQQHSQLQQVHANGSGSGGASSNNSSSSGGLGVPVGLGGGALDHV
T1 sequence (Q9U3Y3 1-485 partner): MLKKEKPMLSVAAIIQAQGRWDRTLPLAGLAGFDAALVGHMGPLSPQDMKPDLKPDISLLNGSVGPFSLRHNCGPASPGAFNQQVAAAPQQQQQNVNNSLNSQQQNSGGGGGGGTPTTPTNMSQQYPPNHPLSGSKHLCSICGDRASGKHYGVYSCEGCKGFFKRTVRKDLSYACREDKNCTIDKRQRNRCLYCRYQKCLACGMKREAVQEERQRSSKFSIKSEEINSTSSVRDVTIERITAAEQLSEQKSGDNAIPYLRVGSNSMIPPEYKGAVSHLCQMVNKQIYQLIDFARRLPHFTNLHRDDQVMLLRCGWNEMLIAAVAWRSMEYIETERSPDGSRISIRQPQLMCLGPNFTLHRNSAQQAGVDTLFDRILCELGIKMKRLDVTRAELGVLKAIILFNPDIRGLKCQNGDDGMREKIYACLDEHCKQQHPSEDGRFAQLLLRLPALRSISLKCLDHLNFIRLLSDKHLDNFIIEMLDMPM

Compound | larvicidal activity (in words) (A. albopictus larvae) | mortality at 1 µM (A. albopictus larvae) [%] | change in binding potency compared to the parent compound (Aedes albopictus EcRs) | pIC50 (M) (Aedes albopictus EcRs) | LC50 (A. albopictus larvae) [M] | Logit A Obsd. (A. albopictus larvae)
C[C@@H]1C[C@H](Nc2ccccc2)c2cc(F)ccc2N1C(=O)c1ccccn1 [Compound 21, (2R,4S)-6-fluoro-2-methyl-4-(phenylamino)-1-(2-pyridylcarbonyl)-1,2,3,4-tetrahydroquinoline] | did not show larvicidal activity | 0 | threefold loss in potency | 5.93±0.08 (2) M |  | 
C[C@@H]1C[C@H](Nc2ccccc2)c2cc(F)ccc2N1C(=O)c1cccnc1 [Compound 22] | did not show larvicidal activity | 0 |  | 6.76±0.15 (2) M |  | 
C[C@@H]1C[C@H](Nc2ccccc2)c2cc(F)ccc2N1C(=O)c1ccncc1 [Compound 23, (2R,4S)-6-fluoro-2-methyl-4-(phenylamino)-1-(4-pyridylcarbonyl)-1,2,3,4-tetrahydroquinoline] |  | 36 ± 14 | eightfold gain in potency | 7.29±0.03 (2) M | 2.57e-06 | −0.24
C[C@@H]1C[C@H](Nc2ccccc2)c2cc(F)ccc2N1C(=O)c1ccncn1 [Compound 24] |  | 10 |  | 6.67±0.03 (2) M |  | −0.95
C[C@@H]1C[C@H](Nc2ccccc2)c2cc(F)ccc2N1C(=O)c1ccnnc1 [Compound 25] |  | 10 |  | 6.51±0.13 (2) M |  | −0.95
C[C@@H]1C[C@H](Nc2ccccc2)c2cc(F)ccc2N1C(=O)c1cncnc1 [Compound 26] |  | 5 |  | 6.37±0.02 (2) M |  | −1.28
C[C@@H]1C[C@H](Nc2ccccc2)c2cc(F)ccc2N1C(=O)c1cnc(Cl)nc1 [Compound 27] |  | 16 |  | 6.11±0.12 (2) M |  | −0.72
Cc1ccc(C(=O)N2c3ccc(F)cc3[C@@H](Nc3ccccc3)C[C@H]2C)cn1 [Compound 28] |  | 11 | equipotent | 6.64±0.08 (2) M |  | −0.91
C[C@@H]1C[C@H](Nc2ccccc2)c2cc(F)ccc2N1C(=O)c1ccc(Cl)nc1 [Compound 29] |  | 80 |  | 7.09±0.07 (2) M | 4.57e-07 | 0.60
C[C@@H]1C[C@H](Nc2ccccc2)c2cc(F)ccc2N1C(=O)c1ccc(C(F)(F)F)nc1 [Compound 30] |  | 44 ± 24 |  | 7.03±0.00 (2) M | 9.55e-07 | −0.10
C[C@@H]1C[C@H](Nc2ccccc2)c2cc(F)ccc2N1C(=O)c1ccc(C#N)nc1 [Compound 31] |  | 77 ± 19 | sevenfold gain in potency | 7.61±0.08 (2) M | 5.13e-07 | 0.51
C[C@@H]1C[C@H](Nc2ccccc2)c2cc(F)ccc2N1C(=O)c1ccnc(F)c1 [Compound 32] |  | 74 ± 11 |  | 7.47±0.08 (2) M | 4.68e-07 | 0.44
C[C@@H]1C[C@H](Nc2ccccc2)c2cc(F)ccc2N1C(=O)c1ccnc(C(F)(F)F)c1 [Compound 34] | did not show larvicidal activity | 0 |  | 6.56±0.04 (2) M |  | 
C[C@@H]1C[C@H](Nc2ccccc2)c2cc(F)ccc2N1C(=O)c1ccnc(C#N)c1 [Compound 35] | did not show larvicidal activity | 0 |  | 6.55±0.07 (2) M |  | 
